Laboratory results as given in PMC10536132, “Arginine Gemini-Based Surfactants for Antimicrobial and Antibiofilm Applications: Molecular Interactions, Skin-Related Anti-Enzymatic Activity and Cytotoxicity” (Molecules, 2023).
Marks after values point to notes of the source that are not given here. One block for each molecule: values may come before it.

Legend:
[1] = tested on: Pseudomonas aeruginosa PAO1 biofilm; experiment: Biofilm eradication, crystal violet; assay type: cell-based; conditions: P. aeruginosa PAO1, at 32 μg/mL
Experimental: (§1) The ability of these geminis to disperse and eradicate biofilms once formed on the propylene surfaces of the microtiter plates was evaluated using the same bacterial strains. […] The susceptibility of both biofilms against the tested surfactants was similar. At a low concentration of 32 μg/mL, C3(CA)2 and C3(LA)2 were able to eradicate around 60–70% of preformed biofilm; however, at this concentration, the […] hydrophobic compound, C3(OA)2, eradicated less than 30% of biofilm. At high concentrations, the eradication percentage is similar for all alkyl chains. […] In this case, at low concentrations, there is not a clear dependence between the antibiofilm properties and the spacer; however, at a high concentration, the best effectivity was obtained for the longer spacer chains.
(§2) Antibiofilm activity was assessed against biofilm-producing strains of methicillin-resistant Staphylococcus aureus (MRSA) ATCC 43300 and Pseudomonas aeruginosa PAO1. Biofilm inhibition and eradication capacities of the gemini surfactants were evaluated against adherent bacterial biofilms grown in 96-well microtiter plates. Bacteria were grown overnight in tryptic soy agar at 37 °C for 24 h. The bacteria were suspended in lysogeny broth with glucose (1%) at 1.5 × 10^8 CFU/mL.
(§3) Biofilm eradication procedure: For mature biofilm formation, 200 μL of the diluted bacterial suspension was added to each well in a 96-well microplate and incubated at 37 °C for 24 h. The wells were gently rinsed with phosphate-buffered saline (PBS) and 200 μL of the corresponding gemini surfactant solution was added to each well and incubated again at 37 °C for 24 h. Two-fold serial dilutions of the gemini surfactant were used (4–128 μg/mL). After the plates were air dried, the biofilms were stained with 50 μL of 0.1 of % crystal violet for 25 min. The plates were rinsed with water and then 150 μL of 96% ethanol containing 10% acetic acid was added to all 96-well plates to dissolve the remaining crystal violet-stained biofilm. The absorbance value was recorded at 570 nm. Each assay was conducted at least three times and the results were averaged.

[2] = tested on: methicillin-resistant Staphylococcus aureus (MRSA) ATCC 43300 biofilm; experiment: Biofilm eradication, crystal violet; assay type: cell-based; conditions: at 32 μg/mL
Experimental: as §1, §2, §3

[3] = Water solubility (qualitative); assay type: physicochemical; conditions: qualitative statement
Description: In all cases, the pKap values are smaller than those described by Fitch, as well as those cited in many biochemistry textbooks. The presence of fatty chains in arginine surfactants induces the formation of aggregates in which the positive charges are close to each other. As a result, the repulsion between these charges induces the release of protons, thus increasing the acid character of the compound. The cmc is mainly governed by the hydrophobic content of the molecules. For the same spacer chain, the cmc drastically decreases as the alkyl chain increases. For the same alkyl chain of 12 carbon atoms, the cmc slightly diminishes as the number of the methylene groups in the spacer increases. Unconventional aggregation behavior and two cmcs were inferred from different techniques. The first cmcs, inferred primarily from tension data, are between 0.002 and 0.005 mM. Fluorescence and conductivity experiments indicated a second cmc at concentrations two orders of magnitude higher than that from surface tension (0.3–0.6 mM). The low cmc obtained by surface tension measurements was ascribed to non-globular aggregates with small aggregation numbers larger than two or three, given the nearly constant surface tension above these cmc. The surface tension values at the first cmc were in the same order for all gemini surfactants. […]

[4] = parameters: method as in doi:10.1021/la981295l; conditions: cited from earlier work
[5] = parameters: method as in doi:10.1021/la981295l; conditions: cited from earlier work; remark: listed apart in the source
[6] = tested on: Gram-positive and Gram-negative bacteria; experiment: Minimum inhibitory concentration (MIC), broth microdilution; assay type: cell-based; conditions: planktonic bacteria, 24 h at 37 °C, values only in Figure 2
Description: The Gram-positive bacteria tested include some problematic microorganisms such us L. monocytogenes; these bacteria cause listeriosis, a serious disease that has grown considerably in industrialized countries due to the increased ratio of immunosuppressed persons and the extensive use of refrigerated food. We have also tested the effectivity of these surfactants against methicillin-resistant Staphylococcus aureus (MRSA), which is known as a major cause of hospital-acquired infections and, at this time, is a remarkable public health problem. […] For comparison, this figure also includes the MIC values of a LAM (lauroyl arginine methyl ester) surfactant that can be considered the single-stranded homologue of these geminis and the BAC (benzalkonium ammonium chloride), a quaternary ammonium surfactant widely used as antiseptic.
Antimicrobial tests were carried out against the following microorganisms: Bacillus subtilis ATCC 6633, Staphylococcus epidermidis ATCC 12228, Staphylococcus aureus ATCC 29213, Listeria monocytogenes ATCC 15313, Enterococcus faecalis ATCC 29212, Escherichia coli ATCC 25922, Acinetobacter baumannii ATCC 19606, Klebsiella aerogenes ATCC 13048, methicillin-resistant Staphylococcus aureus ATCC 43300 and Pseudomonas aeruginosa PAO1. […] The growth of the microorganisms was determined visually after incubation for 24 h at 37 °C. […]

[7] = parameters: method as in doi:10.1021/la981295l; conditions: cited from earlier work; remark: listed apart in the source
bovine hyaluronidase = experiment: Hyaluronidase inhibitory activity; assay type: biochemical; conditions: positive control
Experimental: The hyaluronidase inhibitory activity was performed according to the method used by Altinyay et al. with some modifications. Briefly, a work solution containing bovine hyaluronidase (7900 units/mL) in 0.1 M acetate buffer (pH 3.6) was prepared. Fifty microliters of the work solution were mixed 1:1 with the surfactants’ solution in 5% DMSO. For the negative control, 50 μL of 5% DMSO was used, while EGCG was used as positive control. After 20 min of incubation at 37 °C, 50 μL of calcium chloride (12.5 mM) was added to the mixture and again incubated for 20 min at 37 °C. At that point, 250 μL sodium hyaluronate (1.2 mg/mL) was added and incubated for 40 min at 37 °C. After incubation, the mixture was treated with 50 μL of 0.4 M NaOH and 100 μL of 0.2 M sodium borate and then incubated for 3 min in a boiling water bath. After cooling to room temperature, 1.4 mL of p-dimethylaminobenzaldehyde solution was added to the reaction mixture, being further incubated at 37 °C for 20 min. The resulting colored solution was measured at λ = 585 nm (PerkinElmer-Lambda 35, Brazil). The hyaluronidase inhibitory activity of each sample was calculated according to the following formula:(3) Hyaluronidase inhibitory activity %=A1−A2/A1×100 where A1 and A2 represent the absorbance in the absence and presence of the testing sample, respectively.

[8] = tested on: Collagenase from Clostridium histolyticum (ChC); experiment: Collagenase inhibitory activity assay (FALGPA substrate); assay type: biochemical; conditions: approximately 25 μg of sample in the reaction mixture, 15 min preincubation
Experimental: The inhibition of collagenase followed the methodology proposed by Thring et al.. First, a solution containing the surfactants at 1000 μg/mL was prepared. An aliquot of 40 μL of each sample was used in the assay. Collagenase from Clostridium histolyticum (ChC) was dissolved in tricine buffer (50 mM, pH 8.0) immediately before use at an initial concentration of 0.35 U/mL. The synthetic substrate N-[3- (2-furyl) acryloyl]-Leu-Gly-Pro-Ala (FALGPA) (40 μL) was dissolved in the kit buffer (60 μL) according to the supplier information. The samples of C3(LA)2, C6(LA)2 and C9(LA)2 were incubated with the enzyme for 15 min before the substrate addition. The final reaction mixture contained tricine buffer, 0.8 mM FALGPA, 0.1 U of ChC and approximately 25 μg of each surfactant. Ultrapure water was used as a negative control, while the positive control was EGCG solution, prepared at the same concentration of the surfactants. The absorbance at λ = 345 nm was measured immediately after the substrate incorporation and continuously during 20 min in kinetic mode using an Elx800 Microplate Reader Biotek® (Winooski, VT, USA). The collagenase inhibitory activity of each sample was determined in triplicate, according to the following equation:(1) Collagenase inhibitory activity %=A1−A2/A1×100 where A1 and A2 represent the absorbance in the absence and presence of sample, respectively.

[9] = target: porcine pancreatic elastase (Sus scrofa, UniProt P00772); experiment: Elastase inhibitory assay; assay type: biochemical; conditions: 40 µL of 1000 µg/mL stock; EGCG 250 μM
porcine pancreatic elastase, sequence (P00772 27-266): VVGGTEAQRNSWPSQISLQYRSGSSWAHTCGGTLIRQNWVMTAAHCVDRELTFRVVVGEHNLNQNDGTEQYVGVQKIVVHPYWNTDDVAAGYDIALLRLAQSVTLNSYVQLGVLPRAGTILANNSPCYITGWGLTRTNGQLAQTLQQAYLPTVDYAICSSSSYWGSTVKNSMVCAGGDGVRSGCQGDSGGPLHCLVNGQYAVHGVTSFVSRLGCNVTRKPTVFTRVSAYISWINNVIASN
Experimental: The elastase inhibition was tested according to the method described by […] et al.. First, a stock solution of each surfactant at 1000 μg/mL was prepared in sterile ultrapure water. A stock solution of porcine pancreatic elastase at 3.33 mg/mL in sterile ultrapure water was also prepared. The substrate […] (Ala) 3-p-nitroanilide was dissolved in 0.2 mM Tris-HCl buffer solution (pH 8.0). The samples (40 μL) were then diluted and incubated together with the enzyme for 15 min prior to the substrate addition. Negative control was sterile ultrapure water, while EGCG (250 μM or 0.114 mg/mL) was used as the positive control. The absorbance at λ = 410 nm was measured immediately after the substrate addition and continuously during the next 2 h using an Elx800 Microplate Reader (Biotek®). […] The anti-elastase activity (in %), determined in triplicate, was calculated according to the following equation:(2) Elastase inhibitory activity %=A1-A2/A1×100 where A1 and A2 represent the absorbance in the absence and presence of the testing samples, respectively.

water solubility [3]: very good water solubility
SMILES: CCCCCCCCCC(=O)NC(CCCNC(=N)N)C(=O)NCCCNC(=O)C(CCCNC(=N)N)NC(=O)CCCCCCCCC (centres unmarked) [C3(CA)2]
preformed biofilm eradicated [1]: 60–70%
preformed biofilm eradicated [2]: 60–70%
CMC (mM) Surface Tension [4]: 0.043 * mM
γcmc ([4]; surface tension at the cmc): 32 * mN/m
CMC (mM) Conductivity [5]: 2 * mM
antimicrobial activity (MIC), in words [6]: most active against all tested microorganisms
CMC (mM) Fluorescence [7]: 3 * mM

SMILES: O=C(O[C@@H]1Cc2c(O)cc(O)cc2O[C@@H]1c1cc(O)c(O)c(O)c1)c1cc(O)c(O)c(O)c1 [EGCG, epigalocatequin-3-galate, reference compound]
hyaluronidase inhibitory activity (bovine hyaluronidase): 13%
anti-collagenase activity (inhibition) [8]: 54.2%
anti-elastase activity (inhibition) [9]: 67.3%
